According to ChEMBL document CHEMBL1135076, “Leishmanicidal activity of some aliphatic diamines and amino-alcohols” (Bioorg Med Chem Lett, 2002):

Tests used:
Assay type in all cases: functional, organism-based
Leishmania donovani [1] = test: Tested in vitro for leishmanicidal activity against Leishmania donovani (PP75) at the concentration of 50 ug/mL;++ indicates 80-90%lysis of parasites
Leishmania braziliensis [2] = test: Tested in vitro for leishmanicidal activity against Leishmania brasiliensis (2903) at the concentration of 10 ug/mL; + indicates Less than 70% lysis of parasites
Leishmania donovani [3] = test: In vitro for leishmanicidal activity against Leishmania donovani (PP75) at the concentration of 100 ug/mL.
Leishmania donovani [4] = test: Tested in vitro for leishmanicidal activity against Leishmania donovani (PP75) at the concentration of 25 ug/mL;+ indicates Less than 70% lysis of parasites
Leishmania braziliensis [5] = test: Tested in vitro for leishmanicidal activity against Leishmania brasiliensis (2903) at the concentration of 50 ug/mL; ++ indicates 80-90%lysis of parasites
Leishmania amazonensis [6] = test: Tested in vitro for leishmanicidal activity against Leishmania amazonensis (PH8) at the concentration of 25 ug/mL; + indicates less than 70% lysis of parasites
Leishmania braziliensis [7] = test: Tested in vitro for leishmanicidal activity against Leishmania brasiliensis (2903) at the concentration of 25 ug/mL; + indicates Less than 70% lysis of parasites
Leishmania amazonensis [8] = test: In vitro for leishmanicidal activity against Leishmania amazonensis (PH8) at the concentration of 100 ug/mL.
Leishmania amazonensis [9] = test: In vitro for leishmanicidal activity against Leishmania amazonensis (PH8) at the concentration of 10 ug/mL.
Leishmania donovani [10] = test: In vitro for leishmanicidal activity against Leishmania donovani (PP75) at the concentration of 10 ug/mL.
Leishmania amazonensis [11] = test: Tested in vitro for leishmanicidal activity against Leishmania amazonensis (PH8) at the concentration of 50 ug/mL; ++ indicates 80-90% lysis of parasites
Leishmania amazonensis [12] = test: Tested in vitro for leishmanicidal activity against Leishmania amazonensis (PH8) at the concentration of 50 ug/mL;++ indicates 80-90% lysis of parasites
Leishmania braziliensis [13] = test: Tested in vitro for leishmanicidal activity against Leishmania brasiliensis (2903) at the concentration of 50 ug/mL;++ indicates 80-90% lysis of parasites
Leishmania donovani [14] = test: Tested in vitro for leishmanicidal activity against Leishmania donovani (PP75) at the concentration of 50 ug/mL;++ indicates 80-90% lysis of parasites
Leishmania amazonensis [15] = test: In vitro for leishmanicidal activity against Leishmania amazonensis (PH8) at the concentration of 50 ug/mL.
Leishmania donovani [16] = test: Tested in vitro for leishmanicidal activity against Leishmania donovani (PP75) at the concentration of 10 ug/mL;++ indicates 80-90% lysis of parasites
Leishmania donovani [17] = test: In vitro for leishmanicidal activity against Leishmania donovani (PP75) at the concentration of 50 ug/mL.
Leishmania amazonensis [18] = test: Tested in vitro for leishmanicidal activity against Leishmania amazonensis (PH8) at the concentration of 10 ug/mL; ++ indicates 80-90% lysis of parasites
Leishmania braziliensis [19] = test: Tested in vitro for leishmanicidal activity against Leishmania brasiliensis (2903) at the concentration of 10 ug/mL; ++ indicates 80-90% lysis of parasites
Leishmania amazonensis [20] = test: Tested in vitro for leishmanicidal activity against Leishmania amazonensis (PH8) at the concentration of 25 ug/mL;++ indicates 80-90% lysis of parasites
Leishmania braziliensis [21] = test: In vitro for leishmanicidal activity against Leishmania brasiliensis (2903) at the concentration of 100 ug/mL.
Leishmania donovani [22] = test: Tested in vitro for leishmanicidal activity against Leishmania donovani (PP75) at the concentration of 25 ug/mL;++ indicates 80-90%lysis of parasites
Leishmania braziliensis [23] = test: Tested in vitro for leishmanicidal activity against Leishmania brasiliensis (2903) at the concentration of 10 ug/mL;+ indicates Less than 70% lysis of parasites
Leishmania braziliensis [24] = test: Tested in vitro for leishmanicidal activity against Leishmania brasiliensis (2903) at the concentration of 25 ug/mL;++ indicates 80-90% lysis of parasites
Leishmania donovani [25] = test: Tested in vitro for leishmanicidal activity against Leishmania donovani (PP75) at the concentration of 10 ug/mL
Leishmania amazonensis [26] = test: Tested in vitro for leishmanicidal activity against Leishmania amazonensis (PH8) at the concentration of 50 ug/mL; + indicates less than 70% lysis of parasites
Leishmania braziliensis [27] = test: In vitro for leishmanicidal activity against Leishmania brasiliensis (2903) at the concentration of 10 ug/mL.
Leishmania donovani [28] = test: Tested in vitro for leishmanicidal activity against Leishmania donovani (PP75) at the concentration of 50 ug/mL;+ indicates Less than 70% lysis of parasites
Leishmania braziliensis [29] = test: Tested in vitro for leishmanicidal activity against Leishmania brasiliensis (2903) at the concentration of 50 ug/mL; + indicates Less than 70% lysis of parasites
Leishmania braziliensis [30] = test: Tested in vitro for leishmanicidal activity against Leishmania brasiliensis (2903) at the concentration of 25 ug/mL; ++ indicates 80-90%lysis of parasites
Leishmania braziliensis [31] = test: Tested in vitro for leishmanicidal activity against Leishmania brasiliensis (2903) at the concentration of 10 ug/mL;++ indicates 80-90% lysis of parasites
Leishmania donovani [32] = test: Tested in vitro for leishmanicidal activity against Leishmania donovani (PP75) at the concentration of 10 ug/mL++ indicates 80-90% lysis of parasites
Leishmania braziliensis [33] = test: Tested in vitro for leishmanicidal activity against Leishmania brasiliensis (2903) at the concentration of 25 ug/mL; ++ indicates 80-90% lysis of parasites
Leishmania donovani [34] = test: Tested in vitro for leishmanicidal activity against Leishmania donovani (PP75) at the concentration of 25 ug/mL;++ indicates 80-90% lysis of parasites
Leishmania amazonensis [35] = test: Tested in vitro for leishmanicidal activity against Leishmania amazonensis (PH8) at the concentration of 25 ug/mL; ++ indicates 80-90% lysis of parasites
Leishmania braziliensis [36] = test: Tested in vitro for leishmanicidal activity against Leishmania brasiliensis (2903) at the concentration of 10 ug/mL; + indicatesLess than 70% lysis of parasites

Measured: Activity

CCCCCCCCCCCCCCC(CO)NCC(=O)OCC (stereo not drawn)
active: Leishmania donovani [3] + | Leishmania amazonensis [8] +
80-90% lysis of parasites: Leishmania donovani [1] | Leishmania braziliensis [2] | Leishmania donovani [4] | Leishmania braziliensis [5] | Leishmania amazonensis [6] | Leishmania braziliensis [7] | Leishmania amazonensis [9] | Leishmania donovani [10] | Leishmania amazonensis [11]

CCCCCCCCCCCCCCC(CO)NC(=O)CCCC(=O)O (stereo not drawn)
80-90% lysis of parasites: Leishmania braziliensis [2] | Leishmania donovani [4] | Leishmania amazonensis [6] | Leishmania braziliensis [7] | Leishmania amazonensis [12] | Leishmania braziliensis [13] | Leishmania amazonensis [9] | Leishmania donovani [14] | Leishmania donovani [10]
active: Leishmania donovani [3] + | Leishmania amazonensis [8] +

CCCCCCCCCCCCCCC(CO)NCC (stereo not drawn)
active: Leishmania amazonensis [15] + | Leishmania donovani [3] + | Leishmania donovani [17] + | Leishmania amazonensis [8] +
80-90% lysis of parasites: Leishmania donovani [16] | Leishmania amazonensis [18] | Leishmania braziliensis [19]

CCCCCCCCCCCCCCC(CN(CC)CC)NC(=O)CCCC(=O)O (stereo not drawn)
80-90% lysis of parasites: Leishmania amazonensis [20] | Leishmania donovani [22] | Leishmania braziliensis [23] | Leishmania braziliensis [24] | Leishmania amazonensis [9] | Leishmania donovani [10]
active: Leishmania amazonensis [15] + | Leishmania braziliensis [21] + | Leishmania donovani [3] + | Leishmania donovani [17] + | Leishmania amazonensis [8] +

CCCCCCCCCCCCCCC(CO)NCC(=O)O (stereo not drawn)
Less than 70% lysis of parasites: Leishmania donovani [25] | Leishmania donovani [4] | Leishmania amazonensis [26] | Leishmania braziliensis [27] | Leishmania amazonensis [6] | Leishmania braziliensis [7] | Leishmania donovani [28] | Leishmania braziliensis [29] | Leishmania amazonensis [9]
active: Leishmania donovani [3] + | Leishmania amazonensis [8] +

CCCCCCCCCCCCCCC(CO)N(CC)CC (stereo not drawn)
active: Leishmania amazonensis [15] + | Leishmania donovani [3] + | Leishmania donovani [17] + | Leishmania amazonensis [8] +
80-90% lysis of parasites: Leishmania donovani [4] | Leishmania amazonensis [6] | Leishmania amazonensis [9] | Leishmania braziliensis [30] | Leishmania donovani [10]

CCCCCCCCCCCCCCC(N)CN(CC(=O)OCC)CC(=O)OCC (stereo not drawn)
active: Leishmania amazonensis [15] + | Leishmania braziliensis [21] + | Leishmania donovani [3] + | Leishmania donovani [17] + | Leishmania amazonensis [8] +
80-90% lysis of parasites: Leishmania braziliensis [31] | Leishmania amazonensis [18] | Leishmania donovani [32]

CCCCCCCCCCCCCCC(COCc1ccccc1)NCC (stereo not drawn)
80-90% lysis of parasites: Leishmania braziliensis [33] | Leishmania donovani [17] | Leishmania donovani [34] | Leishmania amazonensis [35] | Leishmania braziliensis [36] | Leishmania amazonensis [9] | Leishmania donovani [10]
active: Leishmania amazonensis [15] + | Leishmania donovani [3] + | Leishmania amazonensis [8] +
